Values quoted from earlier work, collected in patent publication US5177084A, “Therapeutic use of substituted benzenes, formulations thereof and novel substituted benzenes” (Merck Sharp & Dohme Ltd., priority 1989, dated 1993).

Details: literature report, test not specified

Structure (SMILES) | pharmacological activity
COc1ccc(C2(O)CN3CCC2CC3)cc1.O=C(O)C(=O)O (centres unmarked) [Example 2, 3-Hydroxy-3-(4-Methoxyphenyl)quinuclidine Hydrogen Oxalate] | did not display pharmacological activity
O=C(O)C(=O)O.OC1(c2ccc(Cl)cc2)CN2CCC1CC2 (centres unmarked) [Example 4, 3-(4-Chlorophenyl)-3-hydroxy quinuclidine Hydrogen Oxalate] | did not display pharmacological activity
